# From US20250041267A1, “TREATEMENT FOR CRYOPYRIN ASSOCIATED PERIODIC SYNDROMES (CAPS)” (Zydus Lifesciences Limited, priority 2021, published 2025)
# Read-outs that look alike come from different tables or passages of the source.
# How the values were obtained:
# [1] = Phase 1 single oral dose safety and tolerability in healthy subjects; assay type: in vivo, human; conditions: till 100 mg single dose
# [2] = Phase 1 single oral dose pharmacokinetics in healthy subjects (plasma and urine, LC-MS/MS); assay type: in vivo, human; conditions: for half-life / Cmax / dose excreted: human; for half-life / Cmax: plasma; for half-life: read-out: mean elimination half-life (converted); for dose excreted: urine, read-out: mean cumulative percentage urinary recovery of unchanged compound
# [3] = test system: activated THP-1 cells, hPBMCs and whole blood; experiment: IL-1β and IL-18 secretion from cells treated with LPS and ATP; assay type: cell-based, human
# Protocol: Compound 11, a potent NLRP3 inflammazome inhibitor blocks the IL-1β and IL-18 secretion from activated THP-1 cells, hPBMCs (Human peripheral blood mononuclear cell) and whole blood treated with LPS (lipopolysaccharide) and ATP (Adenosine triphosphate). For the whole blood assay, human peripheral venous blood was collected from healthy volunteers following the protocol approved by ethics committee. Whole blood was distributed in 96-well plates and primed with LPS (500 ng/mL) for 4 hours. Different concentrations of compound 11 was added in the presence of serum free media. NLRP3 inflammasome was induced with ATP (5 mM) for 1 hour. The supernatant was collected at the end of 1 hour and assayed for released IL-1β using the ELISA method. The inhibition in the cytokine levels was plotted and the half maximal inhibitory concentration was derived.
# [4] = 25 mg single oral dose, cohort S1
# [5] = 50 mg single oral dose, cohort S2
# [6] = 100 mg single oral dose, cohort S3
smiles,measurement,setting,value
"CN1CCC[C@]1(C)/C=C/S(=O)(=O)NC(=O)Nc1c2c(cc3c1CCC3)CCC2 [Compound 11, (R,E)-2-(1,2-dimethylpyrrolidin-2-yl)-N-((1,2,3,5,6,7-hexahydro-s-indacen-4-yl)carbamoyl)ethene-1-sulfonamide]",safety and tolerability,[1],safe and well tolerated
same,mean plasma clearance,[2]; [4],0.922 ± 0.01 L/h
same,mean volume of distribution,[2]; [4],8681.147 ± 929.14 mL
same,mean plasma clearance,[2]; [5],1.238 ± 0.22 L/h
same,mean volume of distribution,[2]; [5],10285.52 ± 1174.32 mL
same,mean plasma clearance,[2]; [6],1.099 ± 0.15 L/h
same,mean volume of distribution,[2]; [6],9847.576 ± 825.72 mL
same,half-life,"[2]; oral, across all three doses (25, 50, 100 mg)",6 to 6.5 h
same,Cmax,[2]; [4],3390 ± 720 ng/mL
same,half-life,[2]; [4],6.53 ± 0.67 h
same,Cmax,[2]; [5],5720 ± 520 ng/mL
same,half-life,[2]; [5],5.82 ± 0.47 h
same,half-life,[2]; [6],6.28 ± 0.65 h
same,dose excreted,[2]; [4],93.3%
same,dose excreted,[2]; [5],69.1%
same,dose excreted,[2]; [6],76.6%
same,IL-1β and IL-18 secretion,[3],blocks
